The text below walks through data of patent publication US10532106B2 (priority 2014, dated 2020).

This assay deals with T1, MT1-MMP hemopexin domain (Homo sapiens, UniProt P50281).
T1 construct: residues Cys319-Gly511 from the human gene; His6 (N); made in house; host or cells: HEK293 (transient), pEXPR-IBA42 vector
In words: Competition assay using fluorescence polarisation. Type of assay: binding. Conditions: for Kd: read-out: Kd. The source says:
Here, a pre-formed complex of PEX with the fluorescent PEX-binding tracer is titrated with free, non-fluoresceinated bicyclic peptide. Since all 17-69-based peptides are expected to bind at the same site, the titrant will displace the fluorescent tracer from PEX. Dissociation of the complex can be measured quantitatively, and the Kd of the competitor (titrant) to the target protein determined. The advantage of the competition method is that the affinities of non-fluoresceinated bicyclic peptides can be determined accurately and rapidly.
Subsequently, the non-fluorescent competitor bicyclic peptide (usually just the bicycle core sequence) is titrated, such that it displaces the fluorescent tracer from the target protein. The displacement of the tracer is measured and associated with a drop in fluorescence polarisation. The drop in fluorescence polarisation is proportional to the fraction of target protein bound with the non-fluorescent titrant, and thus is a measure of the affinity of titrant to target protein.
The raw data is fit to the analytical solution of the cubic equation that describes the equilibria between fluorescent tracer, titrant, and binding protein. The fit requires the value of the affinity of fluorescent tracer to the target protein, which can be determined separately by direct binding FP experiments (see previous section).
(In general: In fluorescence polarisation assays a small probe gives low polarisation when free and higher when bound to something large.)

Where [1] appears, read: Table 8, substitutions at position 4.
[2] abbreviates: Table 12, molecules selected for plasma stability assessment.

Where two headings read alike, the source gives them in different places. Numbered stars: 1 amine (or outer) side, 2 acyl side, 3 side chain; on linkers, the order of the positions; unused ones are H or OH. Bridge positions count the residues as written; N and C are the ends. Square brackets hold non-standard residues; d marks the D form. Peptide text beside a SMILES is read from it. Phe(F5) = N[C@@H](Cc1c(F)c(F)c(F)c(F)c1F)C(=O)O; Phe(4-Br) = N[C@@H](Cc1ccc(Br)cc1)C(=O)O; 1Nal = N[C@@H](Cc1cccc2ccccc12)C(=O)O; TBMB = c1c(C[*:1])cc(C[*:3])cc1C[*:2]; Cha = N[C@@H](CC1CCCCC1)C(=O)O; Tle = CC(C)(C)[C@H](N)C(=O)O; Sar = CNCC(=O)O

The term Kd denotes the concentration at which binding is half-saturated. For the compound `CC[C@H](C)[C@@H]1NC(=O)[C@H](CC(=O)O)NC(=O)[C@H](Cc2ccc(O)cc2)NC(=O)[C@H](Cc2ccccc2)NC(=O)[C@H](CC(=O)O)NC(=O)[C@H](CCC(=O)O)NC(=O)[C@@H]2CSCc3cc(cc(c3)CSC[C@H](NC(C)=O)C(=O)N[C@@H](Cc3ccc(O)cc3)C(=O)N[C@@H](CC(N)=O)C(=O)N[C@@H](CCC(=O)O)C(=O)N[C@@H](CC3CCCCC3)C(=O)NCC(=O)N2)CSC[C@@H](C(N)=O)NC1=O` [17-69-07-N139, Ac-(17-69-07) Cha4] (Ac-CYNE[Cha]GCEDFYDIC-NH2; linker 1-7-14 via TBMB), the equilibrium dissociation constant (Kd) under setting [1] came to 362 nM.
Take `CC[C@H](C)[C@@H]1NC(=O)[C@H](CC(=O)O)NC(=O)[C@H](Cc2ccc(O)cc2)NC(=O)[C@H](Cc2ccccc2)NC(=O)[C@H](CC(=O)O)NC(=O)[C@H](CCC(=O)O)NC(=O)[C@@H]2CSCc3cc(cc(c3)CSC[C@H](NC(C)=O)C(=O)N[C@@H](Cc3ccc(O)cc3)C(=O)N[C@@H](CC(N)=O)C(=O)N[C@@H](CCC(=O)O)C(=O)N[C@@H](CCc3ccccc3)C(=O)NCC(=O)N2)CSC[C@@H](C(N)=O)NC1=O` [17-69-07-N140, Ac-(17-69-07) HPhe4]: under setting [1], the Kd was 43.3 nM.
As for `CC[C@H](C)[C@@H]1NC(=O)[C@H](CC(=O)O)NC(=O)[C@H](Cc2ccc(O)cc2)NC(=O)[C@H](Cc2ccccc2)NC(=O)[C@H](CC(=O)O)NC(=O)[C@H](CCC(=O)O)NC(=O)[C@@H]2CSCc3cc(cc(c3)CSC[C@H](NC(=O)[C@H](C)NC(=O)CN3CCN(CC(=O)O)CCN(CC(=O)O)CCN(CC(=O)O)CC3)C(=O)N[C@@H](Cc3ccc(O)cc3)C(=O)N[C@@H](CC(N)=O)C(=O)N[C@@H](CCC(=O)O)C(=O)N[C@@H](Cc3ccccc3)C(=O)NCC(=O)N2)CSC[C@@H](C(N)=O)NC1=O` [17-69-07-N144, DOTA-A-(17-69-07)], the “potency / activity toward MT1-MMP, in words” value is “retains full potency to MT1-MMP”. Moreover, under “Table 15, DOTA-linked peptides”, the Kd was 0.5 nM.
Take `CC[C@H](C)[C@@H]1NC(=O)[C@H](CC(=O)O)NC(=O)[C@H](Cc2ccc(O)cc2)NC(=O)[C@H](Cc2ccccc2)NC(=O)[C@H](CC(=O)O)NC(=O)[C@H](CCC(=O)O)NC(=O)[C@@H]2CSCc3cc(cc(c3)CSC[C@H](NC(=O)[C@H](C)NC(=O)CN3CCN(CC(=O)O)CCN(CC(=O)O)CCN(CC(=O)O)CC3)C(=O)N[C@@H](Cc3ccc(O)cc3)C(=O)N[C@@H](CC(N)=O)C(=O)N[C@@H](CCC(=O)O)C(=O)N[C@@H](Cc3ccccc3)C(=O)NCC(=O)N2)CSC[C@@H](C(N)=O)NC1=O` [17-69-07-N147, DOTA[Lu]-A-(17-69-07)]: the equilibrium dissociation constant (Kd) (Table 15, DOTA-linked peptides) amounted to 0.95 ± 0.5 nM.
For the compound `CC[C@H](C)[C@@H]1NC(=O)[C@H](CC(=O)O)NC(=O)[C@H](Cc2c(F)c(F)c(F)c(F)c2F)NC(=O)[C@H](Cc2ccccc2)NC(=O)[C@H](CC(=O)O)NC(=O)[C@H](CCC(=O)O)NC(=O)[C@@H]2CSCc3cc(cc(c3)CSC[C@H](NC(C)=O)C(=O)N[C@@H](Cc3ccc(O)cc3)C(=O)N[C@@H](CC(N)=O)C(=O)N[C@@H](CCC(=O)O)C(=O)N[C@@H](Cc3ccccc3)C(=O)NCC(=O)N2)CSC[C@@H](C(N)=O)NC1=O` [17-69-07-N182, Ac-(17-69-07) 5FPhe9] (Ac-CYNEFGCEDF[Phe(F5)]DIC-NH2; linker 1-7-14 via TBMB), the Kd (Table 9, tolerated substitutions at positions 9 and 11) was 13.1 nM.
Turning to `CC[C@H](C)[C@@H]1NC(=O)[C@H](CC(=O)O)NC(=O)[C@H](Cc2ccc(O)cc2)NC(=O)[C@H](Cc2ccccc2)NC(=O)[C@H](CC(=O)O)NC(=O)[C@H](CCC(=O)O)NC(=O)[C@@H]2CSCc3cc(cc(c3)CSC[C@H](NC(=O)[C@H](C)NC(=O)CN(C)C(=O)CN(C)C(=O)CN(C)C(=O)CN(C)C(=O)CN(C)C(=O)CN(C)C(=O)CN(C)C(=O)CN(C)C(=O)CN(C)C(=O)CN(C)C(=O)CNC(C)=O)C(=O)N[C@@H](Cc3ccc(O)cc3)C(=O)N[C@@H](CC(N)=O)C(=O)N[C@@H](CCC(=O)O)C(=O)N[C@@H](Cc3ccccc3)C(=O)NCC(=O)N2)CSC[C@@H](C(N)=O)NC1=O` [17-69-07-N225, Ac-G-Sar10-A-(17-69-07)] (Ac-G[Sar][Sar][Sar][Sar][Sar][Sar][Sar][Sar][Sar][Sar]ACYNEFGCEDFYDIC-NH2; linker 13-19-26 via TBMB), the Kd (Table 11, G-Sar10-A addition) amounted to 0.95 ± 0.1 nM.
Take `C[C@H](NC(=O)CN(C)C(=O)CN(C)C(=O)CN(C)C(=O)CN(C)C(=O)CN(C)C(=O)CN(C)C(=O)CN(C)C(=O)CN(C)C(=O)CN(C)C(=O)CN(C)C(=O)CN)C(=O)N[C@H]1CSCc2cc3cc(c2)CSC[C@H](NC(=O)[C@@H](C)NC(=O)[C@H](Cc2cccc4ccccc24)NC(=O)[C@H](CCC(=O)O)NC(=O)[C@H](CC(N)=O)NC(=O)[C@@H](C)NC1=O)C(=O)N[C@@H](CCC(=O)O)C(=O)N[C@@H](CC(=O)O)C(=O)N[C@@H](Cc1ccccc1)C(=O)N[C@@H](Cc1ccc(O)cc1)C(=O)N[C@@H](CC(=O)O)C(=O)N[C@@H](C(C)(C)C)C(=O)N[C@H](C(N)=O)CSC3` [17-69-07-N231, G-Sar10-A-(17-69-07) D-Ala1 1Nal4 D-Ala5 tBuGly11] (H-G[Sar][Sar][Sar][Sar][Sar][Sar][Sar][Sar][Sar][Sar]AC[dA]NE[1Nal][dA]CEDFYD[Tle]C-NH2; linker 13-19-26 via TBMB): the Kd under setting [2] was found to be 1.07 ± 0.28 nM.
As to `CC(=O)NCC(=O)N(C)CC(=O)N(C)CC(=O)N(C)CC(=O)N(C)CC(=O)N(C)CC(=O)N(C)CC(=O)N(C)CC(=O)N(C)CC(=O)N(C)CC(=O)N(C)CC(=O)N[C@@H](C)C(=O)N[C@H]1CSCc2cc3cc(c2)CSC[C@H](NC(=O)[C@@H](C)NC(=O)[C@H](Cc2cccc4ccccc24)NC(=O)[C@H](CCC(=O)O)NC(=O)[C@H](CC(N)=O)NC(=O)[C@@H](C)NC1=O)C(=O)N[C@@H](CCC(=O)O)C(=O)N[C@@H](CC(=O)O)C(=O)N[C@@H](Cc1ccccc1)C(=O)N[C@@H](Cc1ccc(O)cc1)C(=O)N[C@@H](CC(=O)O)C(=O)N[C@@H](C(C)(C)C)C(=O)N[C@H](C(N)=O)CSC3` [17-69-07-N239, Ac-G-Sar10-A-(17-69-07) D-Ala1 1Nal4 D-Ala5 tBuGly11] (Ac-G[Sar][Sar][Sar][Sar][Sar][Sar][Sar][Sar][Sar][Sar]AC[dA]NE[1Nal][dA]CEDFYD[Tle]C-NH2; linker 13-19-26 via TBMB), the “potency / activity toward MT1-MMP, in words” value is reported as “potency which is superior to wildtype”. For the same compound, the equilibrium dissociation constant (Kd) (Table 11, G-Sar10-A addition) came out at 0.94 ± 0.08 nM.
On to `C[C@H](NC(=O)CN(C)C(=O)CN(C)C(=O)CN(C)C(=O)CN(C)C(=O)CN(C)C(=O)CN(C)C(=O)CN(C)C(=O)CN(C)C(=O)CN(C)C(=O)CN(C)C(=O)CN)C(=O)N[C@H]1CSCc2cc3cc(c2)CSC[C@H](NC(=O)[C@@H](C)NC(=O)[C@H](Cc2cccc4ccccc24)NC(=O)[C@H](CCC(=O)O)NC(=O)[C@H](CC(N)=O)NC(=O)[C@@H](C)NC1=O)C(=O)N[C@@H](CCC(=O)O)C(=O)N[C@@H](CC(=O)O)C(=O)N[C@@H](Cc1ccccc1)C(=O)N[C@@H](Cc1ccc(Br)cc1)C(=O)N[C@@H](CC(=O)O)C(=O)N[C@@H](C(C)(C)C)C(=O)N[C@H](C(N)=O)CSC3` [17-69-07-N244, G-Sar10-A-(17-69-07) D-Ala1 1Nal4 D-Ala5 4BrPhe9 tBuGly11] (H-G[Sar][Sar][Sar][Sar][Sar][Sar][Sar][Sar][Sar][Sar]AC[dA]NE[1Nal][dA]CEDF[Phe(4-Br)]D[Tle]C-NH2; linker 13-19-26 via TBMB), for which the “potency / activity toward MT1-MMP, in words” value is listed as “potency which is superior to wildtype”. Under setting [2], the Kd is 0.45 ± 0.19 nM.
